Assay results published in US20210000953A1, “USE OF IMMUNE CHECKPOINT INHIBITORS IN CENTRAL NERVOUS SYSTEMS NEOPLASMS” (Bristol-Myers Squibb Company, priority 2014, published 2021).
Entries after “also recorded” stand apart in the source; their conditions may differ.

Key:
[1] = tested on: subjects with recurrent GBM; assay: Study CA209143 safety lead-in cohorts (Cohort 1, 1b): safety, tolerability and patient disposition; assay type: in vivo, human
Experimental: This is the first study examining monoclonal antibodies targeting immune checkpoint inhibitors in subjects with recurrent GBM. To ensure that nivolumab monotherapy and nivolumab in combination with ipilimumab are tolerable, safety lead-in cohorts (Cohort 1, 1b) evaluating the tolerability of two different treatment regimens were initiated prior to advancing a treatment arm into Cohort 2. Cohort 1 examined in a randomized fashion the safety and tolerability of nivolumab monotherapy dosed at 3 mg/kg every 2 weeks or nivolumab 1 mg/kg+ipilimumab 3 mg/kg every 3 weeks for four doses, then nivolumab 3 mg/kg every 2 weeks thereafter. Cohort 1b examined, in a non-randomized fashion, the safety and tolerability of nivolumab 3 mg/kg+ipilimumab 1 mg/kg every 3 weeks for four doses, then nivolumab 3 mg/kg every 2 weeks thereafter.
A randomized, open-label, multicenter, phase 3 study of nivolumab monotherapy versus bevacizumab and a safety study of nivolumab and nivolumab in combination with ipilimumab is conducted in adult (>18 years) subjects with a first recurrence of GBM after treatment with radiotherapy and temozolomide. Since the use of nivolumab and ipilimumab has not previously been studied in subjects with GBM, a safety lead-in (Cohort 1) consisting of approximately 10 subjects in each of two treatment arms are enrolled and randomized to treatment with either Arm N (nivolumab monotherapy) or Arm N+I (nivolumab combined with ipilimumab). Tolerability and safety of a treatment arm is determined after all subjects in the arm completed four doses or discontinued dosing prior to completing four doses. A safety evaluation of Cohort 1 is conducted for each arm based on criteria described herein.
Subjects will be evaluated for safety if they have received any study drug. […]
The causal relationship to study drug is determined by a physician and should be used to assess all adverse events (AE). […]
Tolerability and safety of a treatment arm was determined after all subjects per arm have completed four doses or discontinued dosing prior to completing four doses. […]

PD-1 = target: T1, PD-1 (Homo sapiens, UniProt Q15116); assay: PD-1 receptor occupancy in subjects dosed with nivolumab; assay type: in vivo; conditions: 15 subjects, 0.3 mg/kg to 10 mg/kg, across all doses
T1 construct: Receptor-occupancy data from 15 subjects who received 0.3 mg/kg to 10 mg/kg dosing with nivolumab; endogenous in cells
Experimental: When used in combinations with other anti-cancer agents, the dosage of an anti-PD-1 antibody can be lowered compared to the monotherapy dose. Dosages of nivolumab that are lower than the typical 3 mg/kg, but not less than 0.001 mg/kg, are subtherapeutic dosages. The subtherapeutic doses of an anti-PD-1 antibody used in the methods herein are higher than 0.001 mg/kg and lower than 3 mg/kg. In some embodiments, a subtherapeutic dose is about 0.001 mg/kg-about 1 mg/kg, about 0.01 mg/kg-about 1 mg/kg, about 0.1 mg/kg-about 1 mg/kg, or about 0.001 mg/kg-about 0.1 mg/kg body weight. In some embodiments, the subtherapeutic dose is at least about 0.001 mg/kg, at least about 0.005 mg/kg, at least about 0.01 mg/kg, at least about 0.05 mg/kg, at least about 0.1 mg/kg, at least about 0.5 mg/kg, or at least about 1.0 mg/kg body weight. Receptor-occupancy data from 15 subjects who received 0.3 mg/kg to 10 mg/kg dosing with nivolumab indicate that PD-1 occupancy appears to be dose-independent in this dose range. Across all doses, the mean occupancy rate was 85% (range, 70% to 97%), with a mean plateau occupancy of 72% (range, 59% to 81%). In some embodiments, 0.3 mg/kg dosing can allow for sufficient exposure to lead to maximal biologic activity.

[2] = tested on: resected GBM tumor tissue; assay: Histopathology of tumor tissue resected at suspected progression; assay type: in vivo, human
From the text: In those cases in which radiologic progression cannot be differentiated from pseudoprogression and it is the investigator's opinion that a surgical resection to obtain tumor tissue for histopathology is in the subject's best interests, a surgical resection may be performed following consultation with the BMS medical monitor. Tumor biopsy samples (blocks or slides) must be submitted for central review by a neuropathologist to minimize any inter-observer variation in the histopathologic assessment of progression versus treatment-related changes. If tumor pathology confirms progression, then the subject will be discontinued from study medication per protocol discontinuation criteria and the date of progression will be the day that it was first suspected. […] An MRI after the resection is required prior to treatment continuation. The subject will then continue all on-treatment tumor assessments as per the treatment schedule.
In those cases in which radiologic progression cannot be differentiated from pseudoprogression and the subject undergoes a biopsy or diagnostic surgical resection to obtain tumor tissue for histopathology analysis, representative tumor tissue samples will be reviewed locally and submitted for central review by a neuropathologist. If there is discordance between the central and local neuropathologic determination of progression versus treatment-associated changes (pseudoprogression), then a second central neuropathologic review will be performed and serve as the final adjudication of the histopathologic determination. Central review of histopathology will be blinded to the subject treatment arm assignment. Specific instructions will be provided to the investigative sites regarding the requirements for submission of tumor tissue for central neuropathologic review.

[3] = Phase 1 study of nivolumab; cited from earlier work
[4] = case: nivolumab 3 mg/kg, after five treatments

T1 sequence (Q15116 25-288): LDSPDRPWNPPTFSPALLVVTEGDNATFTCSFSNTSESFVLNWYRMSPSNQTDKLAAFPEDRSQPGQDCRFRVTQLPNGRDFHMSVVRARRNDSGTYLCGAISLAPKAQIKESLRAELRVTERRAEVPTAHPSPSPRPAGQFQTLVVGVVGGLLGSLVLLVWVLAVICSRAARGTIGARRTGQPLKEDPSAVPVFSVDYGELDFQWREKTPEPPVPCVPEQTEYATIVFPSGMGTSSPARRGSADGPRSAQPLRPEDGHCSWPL

Substance: nivolumab
- Patients in the study: Died ([1]; Cohort 1, N = 10 per arm, same regimens, deaths in both arms were due to disease, cutoff Sep. 9, 2015): 7 (70) n (%)
- Deaths due to drug toxicity ([1]; Cohort 1, nivolumab 3 mg/kg monotherapy arm and nivolumab 1 mg/kg + ipilimumab 3 mg/kg combination arm, N = 10 each): no deaths due to drug toxicity
- Reason for not continuing on treatment: Disease Progression ([1]; Cohort 1, recurrent GBM, N = 10 per arm, nivolumab 3 mg/kg Q2W or nivolumab 1 mg/kg + ipilimumab 3 mg/kg Q3W x4 then nivolumab 3 mg/kg Q2W, cutoff Sep. 9, 2015): 9 (90) n (%)
- Mean plateau PD-1 occupancy (PD-1; range 59% to 81%): 72%
- Mean PD-1 occupancy rate (PD-1; range 70% to 97%): 85%
- Histopathology of the resected tumor ([2]; case: after five doses of nivolumab 3 mg/kg Q2W, suspected progression): immune infiltration consistent with treatment-related changes; also recorded: consistent with significant treatment-related changes
- Pathology review of resection, occipital area [2, 4]: viable tumor in samples from the occipital area with infiltrating T-lymphocytes
- Pathology review of resection, periventricular area [2, 4]: only necrosis and fibrinous exudate (radiation necrosis) and large aggregates of lymphocytes with no tumor
- Subjects with apparent progression of disease before objective response and/or stable disease [3]: approximately 10%
